Tests used:
Assay type in all cases: binding
[1] = test system: Mouse anti-Human IL-6 monoclonal antibody; assay: Selecting the photoaffinity probe: photolabeling of antibody with radioactive nucleotide probes, SDS PAGE/autoradiography; conditions: IL-6 antibody, 300 μM of each probe, pH 4.0
Experimental: Selecting the photoaffinity probe. Two radioactive nucleotide probes, [γ-^32P]8-N3ATP and [γ-^32P]2-N3ATP were tested towards their reactivity with Mouse anti-Human IL-6 monoclonal antibody. For the labeling procedure 8 μg antibody was incubated with 300 μM of each probe in two different tubes in a final volume of 62 μl for 10 min on ice. The buffer used was 100 mM BTP at pH 4.0. After 10 min incubation the two tubes were photolyzed with a hand held UV lamp at 254 nm for 2 min and the reaction mixture was agitated in between to prevent local heating. The reaction was quenched by adding 12 μl of loading dye, PSM (5×) and heating it in a water bath for 5 min. The reaction products were then analyzed by SDS PAGE. ^32P incorporation was detected by autoradiography.

[2] = test system: Mouse anti-Human IL-6 monoclonal antibody; assay: Saturation of labeling of antibody with photoreactive probe; conditions: 2 μg antibody, increasing probe concentrations, photolysis at 254 nm
Experimental: Saturation of labeling. 2 μg of Mouse anti-Human IL-6 monoclonal antibody was incubated with increasing concentrations of [γ-^32P]2-N3ATP for 20 min on ice and photolyzed with a hand held lamp at 254 nm for 1 min 15 sec. The reaction was quenched by adding 5 μl of 0.25 mg/ml cysteine and analyzed by SDS/PAGE and autoradiography.

mAb against Osteonectin = assay: Labeling of mAb against Osteonectin with radioactive probes
Experimental: 2N3ATP versus [γ^32P] 8N3ATP. Lanes A and D have […] have 10 μL, and C and F have 15 μL of the labeled antibody. [γ^32P] 2N3ATP labels the antibody better than [γ^32P] 8N3ATP.

[3] = molecular target: mouse anti-human IL-6 antibody; assay: Determination of KD by competitive labeling with 2-N3ATP [γ 32P] and 2-N3ATP-fluorophore; conditions: competition with 30 μM 2-N3ATP [γ 32P], 2 μg antibody, photolysis; read-out: apparent KD
Experimental: Determination of KD of the monoclonal antibody for 2-N3ATP-fluorophore. Competitive labeling of the mouse anti-human IL-6 antibody with 2-N3ATP [γ ^32P] and 2-N3ATP-fluorophore was done. 30 μM 2-N3ATP [γ ^32P] and 2 μg of the antibody was added to each 10 μM, 20 μM, 40 μM, 60 μM, 80 μM, 100 μM and 120 μM of 2-N3ATP-fluorophore tube and incubated for 20 min on ice. The tubes were then photolyzed for 1 min 15 s. The reaction was quenched by adding 5 μl of 0.25 mg/ml cysteine and analyzed by SDS/PAGE and autoradiography.

| Compound | labeling of the antibody, compared with the 8-azido probe [1] | saturation of photolabeling (probe concentration) [2] | labeling of the antibody, compared with the 8-azido probe (mAb against Osteonectin) | Kd [3] |
| --- | --- | --- | --- | --- |
| [N-]=[N+]=Nc1nc(N)c2ncn([C@@H]3O[C@H](COP(=O)(O)OP(=O)(O)O[32P](=O)(O)O)[C@@H](O)[C@H]3O)c2n1 [[γ-^32P]-2-N3ATP] | better than [γ-^32P]-8-N3ATP | ~25 ΞM | better than [γ^32P] 8N3ATP | – |
| [N-]=[N+]=Nc1nc(N)c2ncn([C@@H]3O[C@H](COP(=O)(O)OP(=O)(O)OP(=O)(O)O)[C@@H](O)[C@H]3O)c2n1 [2-N3ATP, 2-azido ATP] | greater efficiency as compared to 8-N3ATP | – | greater efficiency as compared to 8-azido ATP | – |
| 2-N3ATP-Alexa Fluor 594 cadaverine | – | – | – | ~17 µM |
